Results: patent US20230339981A1, “KRAS G12D MODULATING COMPOUNDS” (priority 2022, published 2023)

Experiments:
GDP-loaded KRAS G12D = GDP-loaded KRAS G12D (Homo sapiens (Human), UniProt P01116, G12D); assay: KRAS G12D (GDP) biochemical assay (TR-FRET probe displacement); format: binding; conditions: 2 hours
How it was run: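 TR-FRET probe displacement: 1:3 DMSO serial dilutions pre-incubated 30 min with GDP-bound KRAS G12D, followed by Eu-streptavidin/probe for 2 h at room temperature (Hepes pH 7.4, NaCl, MgCl2, Tween-20 buffer). IC50 defined as concentration halving TR-FRET ratio, from sigmoidal dose-response fit.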

GP2D (KRAS G12D) cells = assay: 2D cell viability assay (CellTiter-Glo); format: cell-based; conditions: 4 days
How it was run: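 Viability was read by CellTiter-Glo after 4 days at 37 °C of 2D culture of KRAS G12D GP2D cells (1000/well, RPMI, 10% FBS) on pre-spotted threefold compound dilutions. EC50 was fitted with a sigmoidal dose-response model as the point of half-maximal luminescence loss.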

AsPC-1 (KRAS G12D) cells = assay: 3D cell viability assay (spheroids, CellTiter-Glo 3D); format: cell-based; conditions: AsPC-1 cells, 3D spheroids, 4 days
How it was run: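 AsPC-1 cells (1000/well) in DMEM with 10% FBS formed spheroids over 3 days at 37 °C in ultra-low attachment plates, then were treated with 1:3 serial dilutions for 4 days. Viability read by CellTiter-Glo 3D luminescence; EC50 as concentration giving 50% signal decrease, sigmoidal fit.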

Sequence of GDP-loaded KRAS G12D (P01116-2 other isoform, or with tags, fused parts or gaps G12D): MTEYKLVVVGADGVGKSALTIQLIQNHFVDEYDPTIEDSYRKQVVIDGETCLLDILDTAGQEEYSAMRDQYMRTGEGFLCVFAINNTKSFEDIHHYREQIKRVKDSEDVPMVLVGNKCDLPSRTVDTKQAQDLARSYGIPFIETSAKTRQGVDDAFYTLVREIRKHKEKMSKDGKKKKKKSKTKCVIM

SMILES: C#Cc1c(F)ccc2cc(O)cc(-c3nc4c5c(nc(OC[C@@]67CCCN6[C@H](COC(=O)N(C)C)CC7)nc5c3F)N3C[C@H]5CC[C@H](N5)[C@H]3CO4)c12 [Example 39, ((3S,7aS)-7a-((((5aS,6S,9R)-2-(8-ethynyl-7-fluoro-3-hydroxynaphthalen-1-yl)-1-fluoro-5a,6,7,8,9,10-hexahydro-5H-4-oxa-3,10a,11,13,14-pentaaza-6,9-methanonaphtho[1,8-ab]heptalen-12-yl)oxy)methyl)hexahydro-1H-pyrrolizin-3-yl)methyl dimethylcarbamate]
- IC50 (GDP-loaded KRAS G12D): 0.4 nM
- EC50 (GP2D (KRAS G12D) cells; GP2d, 96 h): 48 nM
- EC50 (AsPC-1 (KRAS G12D) cells; Homo sapiens, ASPC1, 96 h): 96 nM

SMILES: C#Cc1c(F)ccc2cccc(-c3nc4c5c(nc(OC[C@@]67CCCN6C[C@H](F)C7)nc5c3F)N3C[C@@]5(C)CC[C@H](N5)[C@H]3CC4)c12 [Example 191, (5aR,6S,9R)-2-(8-ethynyl-7-fluoronaphthalen-1-yl)-1-fluoro-12-(((2R,7aS)-2-fluorotetrahydro-1H-pyrrolizin-7a(5H)-yl)methoxy)-9-methyl-4,5,5a,6,7,8,9,10-octahydro-3,10a,11,13,14-pentaaza-6,9-methanonaphtho[1,8-ab]heptalene]
- IC50 (GDP-loaded KRAS G12D): 2 nM
- EC50 (GP2D (KRAS G12D) cells; GP2d, 96 h): 39.8 nM
- EC50 (AsPC-1 (KRAS G12D) cells; Homo sapiens, ASPC1, 96 h): 110 nM

SMILES: C[C@H]1C[C@@H]2[C@@H]3CC[C@H](CN2c2nc(OC[C@@]45CCCN4C[C@H](F)C5)nc4c(F)c(-c5cc(O)cc6ccc(F)c(F)c56)nc1c24)N3 [Example 81, 5,6-difluoro-4-((4S,5aR,6S,9R)-1-fluoro-12-(((2R,7aS)-2-fluorotetrahydro-1H-pyrrolizin-7a(5H)-yl)methoxy)-4-methyl-4,5,5a,6,7,8,9,10-octahydro-3,10a,11,13,14-pentaaza-6,9-methanonaphtho[1,8-ab]heptalen-2-yl)naphthalen-2-ol]
- IC50 (GDP-loaded KRAS G12D): 0.2 nM
- EC50 (GP2D (KRAS G12D) cells; GP2d, 96 h): 2.8 nM
- EC50 (AsPC-1 (KRAS G12D) cells; Homo sapiens, ASPC1, 96 h): 18 nM

SMILES: C#Cc1c(F)ccc2cccc(-c3nc4c5c(nc(OC[C@@]67CCCN6[C@H](CF)CC7)nc5c3F)N3C[C@H]5CC[C@H](N5)[C@H]3CC4)c12 [Example 166, (5aR,6S,9R)-2-(8-ethynyl-7-fluoronaphthalen-1-yl)-1-fluoro-12-(((3S,7aS)-3-(fluoromethyl)tetrahydro-1H-pyrrolizin-7a(5H)-yl)methoxy)-4,5,5a,6,7,8,9,10-octahydro-3,10a,11,13,14-pentaaza-6,9-methanonaphtho[1,8-ab]heptalene]
- IC50 (GDP-loaded KRAS G12D): 0.3 nM
- EC50 (GP2D (KRAS G12D) cells; GP2d, 96 h): 3.5 nM
- EC50 (AsPC-1 (KRAS G12D) cells; Homo sapiens, ASPC1, 96 h): 110 nM

SMILES: C#Cc1c(F)ccc2cc(O)cc(-c3nc4c5c(nc(OC[C@@]67CCCN6[C@H](COC(C)(C(F)(F)F)C(F)(F)F)CC7)nc5c3F)N3C[C@H]5CC[C@H](N5)[C@H]3CC4)c12 [Example 109]
- IC50 (GDP-loaded KRAS G12D): 0.1 nM
- EC50 (GP2D (KRAS G12D) cells; GP2d, 96 h): 1.2 nM
- EC50 (AsPC-1 (KRAS G12D) cells; Homo sapiens, ASPC1, 96 h): 0.8 nM

SMILES: C#Cc1c(F)ccc2cc(O)cc(-c3nc4c5c(nc(OC[C@@]67CCCN6C[C@H](F)C7)nc5c3F)N3C[C@H]5CC[C@H](N5)C3C[C@@H]4C)c12 (stereo in doubt) [Example 94, 5-ethynyl-6-fluoro-4-((4S,5aS,6S,9R)-1-fluoro-12-(((2R,7aS)-2-fluorotetrahydro-1H-pyrrolizin-7a(5H)-yl)methoxy)-4-methyl-4,5,5a,6,7,8,9,10-octahydro-3,10a,11,13,14-pentaaza-6,9-methanonaphtho[1,8-ab]heptalen-2-yl)naphthalen-2-ol]
- IC50 (GDP-loaded KRAS G12D): 0.1 nM
- EC50 (GP2D (KRAS G12D) cells; GP2d, 96 h): 0.6 nM
- EC50 (AsPC-1 (KRAS G12D) cells; Homo sapiens, ASPC1, 96 h): 2.2 nM

SMILES: Oc1cc(-c2nc3c4c(nc(OC[C@@]56CCCN5C[C@H](F)C6)nc4c2F)N2C[C@H]4CC[C@H](N4)[C@H]2CO3)c2c(F)c(F)ccc2c1 [Example 1, 5,6-difluoro-4-((5aS,6S,9R)-1-fluoro-12-(((2R,7aS)-2-fluorotetrahydro-1H-pyrrolizin-7a(5H)-yl)methoxy)-5a,6,7,8,9,10-hexahydro-5H-4-oxa-3,10a,11,13,14-pentaaza-6,9-methanonaphtho[1,8-ab]heptalen-2-yl)naphthalen-2-ol]
- IC50 (GDP-loaded KRAS G12D): 0.5 nM
- EC50 (GP2D (KRAS G12D) cells; GP2d, 96 h): 19 nM
- EC50 (AsPC-1 (KRAS G12D) cells; Homo sapiens, ASPC1, 96 h): 170 nM

SMILES: C#Cc1c(F)ccc2cc(O)cc(-c3nc4c5c(nc(OCC6(CN7CC8CC8C7)CC6)nc5c3F)N3C[C@H]5CC[C@H](N5)[C@H]3CC4)c12 (stereo partly drawn) [Example 176, 4-((5aR,6S,9R)-12-((1-((3-azabicyclo[3.1.0]hexan-3-yl)methyl)cyclopropyl)methoxy)-1-fluoro-4,5,5a,6,7,8,9,10-octahydro-3,10a,11,13,14-pentaaza-6,9-methanonaphtho[1,8-ab]heptalen-2-yl)-5-ethynyl-6-fluoronaphthalen-2-ol]
- IC50 (GDP-loaded KRAS G12D): 0.1 nM
- EC50 (GP2D (KRAS G12D) cells; GP2d, 96 h): 0.4 nM
- EC50 (AsPC-1 (KRAS G12D) cells; Homo sapiens, ASPC1, 96 h): 9.8 nM

SMILES: C#Cc1c(F)ccc2cc(O)cc(-c3nc4c5c(nc(OC[C@@]67CCCN6C[C@H](F)C7)nc5c3F)N3C[C@H]5CC[C@H](N5)[C@@H]3[C@@H](CC)C4)c12 [Example 92, 4-((5S,5aS,6S,9R)-5-ethyl-1-fluoro-12-(((2R,7aS)-2-fluorotetrahydro-1H-pyrrolizin-7a(5H)-yl)methoxy)-4,5,5a,6,7,8,9,10-octahydro-3,10a,11,13,14-pentaaza-6,9-methanonaphtho[1,8-ab]heptalen-2-yl)-5-ethynyl-6-fluoronaphthalen-2-ol]
- IC50 (GDP-loaded KRAS G12D): 1.9 nM
- EC50 (GP2D (KRAS G12D) cells; GP2d, 96 h): 17.3 nM
- EC50 (AsPC-1 (KRAS G12D) cells; Homo sapiens, ASPC1, 96 h): 52 nM

SMILES: C#Cc1c(F)ccc2cc(O)cc(-c3nc4c5c(nc(OC[C@@]67CCCN6C[C@H](F)C7)nc5c3F)N3C[C@H]5CC[C@H](N5)[C@@H]3[C@@H](C)[C@H]4C)c12 [Example 87, 5-ethynyl-6-fluoro-4-((4R,5S,5aS,6S,9R)-1-fluoro-12-(((2R,7aS)-2-fluorotetrahydro-1H-pyrrolizin-7a(5H)-yl)methoxy)-4,5-dimethyl-4,5,5a,6,7,8,9,10-octahydro-3,10a,11,13,14-pentaaza-6,9-methanonaphtho[1,8-ab]heptalen-2-yl)naphthalen-2-ol]
- IC50 (GDP-loaded KRAS G12D): 0.4 nM
- EC50 (GP2D (KRAS G12D) cells; GP2d, 96 h): 0.2 nM
- EC50 (AsPC-1 (KRAS G12D) cells; Homo sapiens, ASPC1, 96 h): 0.3 nM

SMILES: Oc1cc(-c2nc3c4c(nc(OC[C@@]56CCCN5C[C@H](F)C6)nc4c2F)N2C[C@H]4CC[C@H](N4)[C@H]2CC3)c2c(OC(F)(F)F)c(F)ccc2c1 [Example 41, 6-fluoro-4-((5aR,6S,9R)-1-fluoro-12-(((2R,7aS)-2-fluorotetrahydro-1H-pyrrolizin-7a(5H)-yl)methoxy)-4,5,5a,6,7,8,9,10-octahydro-3,10a,11,13,14-pentaaza-6,9-methanonaphtho[1,8-ab]heptalen-2-yl)-5-(trifluoromethoxy)naphthalen-2-ol]
- IC50 (GDP-loaded KRAS G12D): 0.6 nM
- EC50 (GP2D (KRAS G12D) cells; GP2d, 96 h): 3 nM
- EC50 (AsPC-1 (KRAS G12D) cells; Homo sapiens, ASPC1, 96 h): 8 nM

SMILES: C#Cc1c(F)ccc2cc(O)cc(-c3nc4c5c(nc(OC[C@@]67CCCN6[C@H](COC(C6CC6)C(F)(F)F)CC7)nc5c3F)N3C[C@H]5CC[C@H](N5)[C@H]3CC4)c12 (stereo partly drawn) [Example 110, 4-((5aR,6S,9R)-12-(((3S,7aS)-3-((1-cyclopropyl-2,2,2-trifluoroethoxy)methyl)tetrahydro-1H-pyrrolizin-7a(5H)-yl)methoxy)-1-fluoro-4,5,5a,6,7,8,9,10-octahydro-3,10a,11,13,14-pentaaza-6,9-methanonaphtho[1,8-ab]heptalen-2-yl)-5-ethynyl-6-fluoronaphthalen-2-ol]
- IC50 (GDP-loaded KRAS G12D): 0.3 nM
- EC50 (GP2D (KRAS G12D) cells): 36.1 nM
- EC50 (AsPC-1 (KRAS G12D) cells): 51 nM
